≈ marks a conversion by molar mass, not a printed value.
Experiments:
Type in all cases: cell-based
[1] = system: A549 (Human Lung cancer cell line); assay: MTT cytotoxicity assay on lung cancer cells; details: for SI (selectivity index), A549: IC50 normal cells (HSF) / IC50 A549
Protocol: (§1) Cells (HeLa, cervical cancer cells; MDA-MB-231, breast cancer cells; A375, skin cancer cells; A549, lung cancer cells; and HSF, normal skin fibroblasts cells) were supplied from Nawah Scientific (Cairo, Egypt). The cells were grown in DMEM medium supplemented with 10% fetal bovine serum (Gibco, Life Technologies Inc., UK) with 1% penicillin/streptomycin solution (Gibco). Cells were maintained at 37°C with 5% CO2.
(§2) MTT in vitro cytotoxic assay assesses the metabolic activity of viable cells through the reduction of the water-soluble yellow dye by mitochondrial succinate dehydrogenase into the insoluble purple formazan. In brief, cyanochalcone derivatives were dissolved in 100% dimethyl sulphoxide (DMSO, Serva, Heidelberg, Germany) and incubated with cells at the desired concentrations (0, 6.25, 12.5, 25, 50, 100, and 200 μM) for 48 h with the corresponding vehicle as control. 5-Florouracil (5FU) was used as a positive control. Following incubation, old media were discarded and MTT solution (50 μl, 0.5 mg/ml) was added. After 4 h of incubation, the insoluble formed formazan was dissolved in DMSO (100 μl) with a shaking plate for 15 min in a dark place. The absorbance readings were taken at 570 nm by an ELISA reader. Relative cell viability was calculated as a percentage of control untreated cells. The assay was done in four replicates. The dose–response curve was plotted using GraphPad Prism 8, and the values of IC50 (half-maximal inhibitory concentration) were determined using non-linear regression analysis. Finally, the selectivity index was calculated by dividing the IC50 for normal cells by the IC50 of cancer cells.
(§3) To evaluate the potential usefulness of the Schiff base ligand (H2L) and the reported complexes (Fe, Zn, Cd, Pt) as antitumor agents, five human cell lines (normal Cells; HSF, human colorectal cancer cell line; HCT119, liver carcinoma cell line; HEPG2, human triple-negative breast cancer; MDA, human lung cancer cell line; A549) were treated by the compounds and compared with cis-platin activity as a standard. The IC50 values (concentration that produces 50% inhibition of cell growth) and selectivity index of the H2L ligand, the metal complexes, and cis-platin were tabulated in Table 4.

[2] = system: MDA (Human Breast cancer cell line); assay: MTT cytotoxicity assay on triple-negative breast cancer cells; details: for SI (selectivity index), MDA: IC50 normal cells (HSF) / IC50 MDA
Protocol: as §1, §2, §3

[3] = system: HSF normal human skin fibroblast; assay: MTT cytotoxicity assay on normal skin fibroblasts; details: for SI (selectivity index), HSF: IC50 normal cells (HSF) / IC50 HSF
Protocol: as §1, §2, §3

[4] = system: HCT119 (Human Colorectal cancer cell line); assay: MTT cytotoxicity assay on colorectal cancer cells; details: for SI (selectivity index), HCT119: IC50 normal cells (HSF) / IC50 HCT119
Protocol: as §1, §2, §3

[5] = system: HepG2 (Human Liver cancer cell line); assay: MTT cytotoxicity assay on liver cancer cells; details: for SI (selectivity index), HEPG2: IC50 normal cells (HSF) / IC50 HEPG2
Protocol: as §1, §2, §3

[6] = A549 lung cancer cells, MTT, 48 h
[7] = MDA triple-negative breast cancer cells, MTT, 48 h
[8] = HSF normal skin fibroblasts, MTT, 48 h
[9] = HCT119 colorectal cancer cells (HCT116 in abstract), MTT, 48 h
[10] = HEPG2 liver carcinoma cells, MTT, 48 h

CC(=O)[O-].CC(=O)[O-].[Cd+2].[Cd+2].[O-]c1ccc2ccccc2c1C=NN=C(O)Cc1ccccc1.[O-]c1ccc2ccccc2c1C=NN=C(O)Cc1ccccc1 [Cd complex]
IC50 (A549) [1, 6]: 56.23 µg/mL
SI (selectivity index), A549 [1]: 0.09
SI (selectivity index), MDA [2]: 0.20
IC50 (MDA) [2, 7]: 25.7 µg/mL
IC50 (HSF) [3, 8]: 5.24 µg/mL
SI (selectivity index), HSF [3]: 1.00
IC50 (HCT119) [4, 9]: 0.329 µg/mL
SI (selectivity index), HCT119 [4]: 15.93
IC50 (HEPG2) [5, 10]: 4.16 µg/mL
SI (selectivity index), HEPG2 [5]: 1.26

N.N.[Cl][Pt][Cl] [Cisplatin, reference compound]
IC50 (A549) [1, 6]: 2.73 µg/mL
SI (selectivity index), A549 [1]: 4.05
SI (selectivity index), MDA [2]: 3.45
IC50 (MDA) [2, 7]: 3.21 µg/mL
IC50 (HSF) [3, 8]: 11.07 µg/mL
SI (selectivity index), HSF [3]: 1.00
IC50 (HCT119) [4, 9]: 2.25 µg/mL
SI (selectivity index), HCT119 [4]: 4.92
IC50 (HEPG2) [5, 10]: 3.42 µg/mL
SI (selectivity index), HEPG2 [5]: 3.24

O=C(Cc1ccccc1)NN=Cc1c([O-])ccc2ccccc12.O=C(Cc1ccccc1)NN=Cc1c([O-])ccc2ccccc12.[Fe+2] [Fe complex]
IC50 (A549) [1, 6]: 95.49 µg/mL
SI (selectivity index), A549 [1]: 0.17
SI (selectivity index), MDA [2]: 2.09
IC50 (MDA) [2, 7]: 7.58 µg/mL
IC50 (HSF) [3, 8]: 15.84 µg/mL
SI (selectivity index), HSF [3]: 1.00
IC50 (HCT119) [4, 9]: 64.01 µg/mL
SI (selectivity index), HCT119 [4]: 0.25
IC50 (HEPG2) [5, 10]: 40.73 µg/mL
SI (selectivity index), HEPG2 [5]: 0.39

O=C(Cc1ccccc1)NN=Cc1c(O)ccc2ccccc12 [H2L, Nʹ-((2-hydroxynaphthalen-1-yl)methylene)-2-phenylacetohydrazide]
IC50 ([1]; Homo sapiens, A549 lung cancer cells, MTT, 48 h): 25.1 µg/mL (≈ 82.5 µM)
SI (selectivity index), A549 [1]: 3.63
IC50 ([2]; Homo sapiens, MDA triple-negative breast cancer cells, MTT, 48 h): 25.1 µg/mL (≈ 82.5 µM)
SI (selectivity index), MDA [2]: 3.63
IC50 ([3]; Homo sapiens, Skin fibroblast, HSF normal skin fibroblasts, MTT, 48 h): 91.2 µg/mL (≈ 300 µM)
SI (selectivity index), HSF [3]: 1.00
IC50 ([4]; Homo sapiens, HCT-116, HCT119 colorectal cancer cells (HCT116 in abstract), MTT, 48 h): 285 µg/mL (≈ 936 µM)
SI (selectivity index), HCT119 [4]: 0.32
IC50 ([5]; Homo sapiens, HEPG2 liver carcinoma cells, MTT, 48 h): 31.6 µg/mL (≈ 104 µM)
SI (selectivity index), HEPG2 [5]: 2.88

C1=[N+]2N=C(Cc3ccccc3)[O][Zn-2]23[O+](c2ccc4ccccc4c21)[Zn-2]12[O]C(Cc4ccccc4)=N[N+]1=Cc1c(ccc4ccccc14)[O+]32.CC(=O)O.CC(=O)O (stereo not shown) [Zn complex]
IC50 (MDA) [2, 7]: 89.12 µg/mL
SI (selectivity index), HSF [3]: 1.00
IC50 (HEPG2) [5, 10]: 32.35 µg/mL
